Results from patent publication US10980766B2, “Entacapone-related compounds to treat macular degeneration” (National Institute of Biological Sciences, Beijing, priority 2016, dated 2021).
Marks after values point to notes of the source that are not given here.

Test system: hypoxia-induced retinopathy zebrafish model
Assay: hypoxia-induced retinopathy zebrafish model (cobalt chloride induced)
Type: in vivo
Details: for Blood vessel diameter (mean ± SE): cobalt chloride co-treatment for 4 days, n=10; for Recovery rate (%): blood vessel diameter recovery
Description: We measured the therapeutic efficacy of entacapone and representative entacapone derivatives in hypoxia-induced retinopathy zebrafish model (Cao et al., Hypoxia-induced retinopathy model in adult zebrafish. Nat Protoc 2010, 5 (12), 1903-10).
We measured the therapeutic effect of entacapone and several representative entacapone derivatives on hypoxia-induced retinopathy zebrafish model. The transgenic Tg (flila:EGFP) zebrafish were treated with cobalt chloride for 4 days to induce retinopathy. […] As positive control, zebrafish were treated with cobalt chloride and 100 μL/mL eye-drops augentropfen stulln mono containing 0.3 μg/mL digitalin and 2 μg/mL esculin.

[1] = 10 μM as printed in text, 4 days

CCN(CC)C(=O)/C(C#N)=C/c1cc(O)c(O)c([N+](=O)[O-])c1 [Entacapone, (2E)-2-cyano-3-(3,4-dihydroxy-5-nitrophenyl)-N,N-diethylprop-2-enamide]
Blood vessel diameter (mean ± SE) (5 μM): 19.33 ± 0.52 pixel | Blood vessel diameter (mean ± SE) (5 μM, listed as entacapone): 19.33 pixel | blood vessel diameter recovery rate [1]: 94% | retinal blood diameter [1]: 17.39 | Blood vessel diameter (mean ± SE) (15 μM): 17.39 ± 0.49 pixel | Blood vessel diameter (mean ± SE) (50 μM): 17.47 ± 0.29 pixel | Blood vessel diameter (mean ± SE) (50 μM, listed as entacapone): 17.47 pixel | eye ball volume (in words) (after treatment, compared with model group): larger | Recovery rate (%) (5 μM, 4 days): 58*** % | Recovery rate (%) (5 μM, 4 days, listed as entacapone): 58% | Recovery rate (%) (15 μM, 4 days): 94*** % | Recovery rate (%) (50 μM, 4 days): 93*** % | Recovery rate (%) (50 μM, 4 days, listed as entacapone): 93% | retinal angiogenesis and retina structure (in words) (compared with model group): suppress hypoxia-induced retinal neoangiogenesis and improve histopathology of retinopathy | inner plexiform layer and outer plexiform layer thickness (in words) (treated groups compared with model group): thicker
